According to patent US11771705B2, “Adjuvant therapy for use in prostate cancer treatment” (priority 2017, dated 2023):
Like-named read-outs stand apart in the source and are kept apart here.

Tests used:
[1] = tested on: adenocarcinoma of the prostate; assay: Estetrol on testosterone suppression and quality of life in prostate cancer patients treated with ADT (Example 4); format: in vivo, male patients; details: GnRH agonist plus 40 mg estetrol monohydrate p.o. per day, 24 weeks
Description: Male patients who have histologically confirmed adenocarcinoma of the prostate and who are qualifying for treatment with androgen deprivation therapy (ADT: GnRH agonist) participate in randomized placebo controlled study. Randomisation takes place after a patient is found to be eligible at the baseline visit. Subjects receive the study medication for a period of 24 weeks in total. Subjects receive blinded study medication: • Investigational product: GnRH agonist plus 40 mg estetrol monohydrate (E4) p.o. per day; • Placebo: GnRH agonist plus placebo. Selection of the GnRH agonist is left to the doctors treating the individual patients. Medication is taken in the morning between 8:00-10:00 AM. A total of 60 patients is dosed as follows: 40 patient in the estetrol group and 20 patients in the reference therapy group (placebo). Effects of medication on total T, free T, SHBG, hot flushes, PSA response, endocrine parameters, adrenal androgens and the lipid profile are assessed. Further assessed are the effects on health related quality of life (using the Functional Assessment of Cancer Therapy Prostate (FACT-P) questionnaire and a small questionnaire on the presence and absence of endocrine related symptoms (Q-man questionnaire)) and effects on bone turnover (bone markers).

[2] = tested on: adenocarcinoma of the prostate; assay: Estetrol in prostate cancer patients treated with ADT, randomized placebo controlled (Example 3); format: in vivo, male patients; details: GnRH agonist plus 40 mg estetrol per day oral, 24 weeks
Excerpt: Male patients who have histologically confirmed adenocarcinoma of the prostate and who are qualifying for treatment with androgen deprivation therapy (ADT: GnRH agonist) are included. The study is randomized placebo controlled.
Randomisation takes place after a patient is found to be eligible at the baseline visit. Subjects receive the study medication for a period of 24 weeks in total.
Subjects receive blinded study medication (oral administration) as follows: • Investigational product: GnRH agonist plus 40 mg estetrol (E4) per day; • Placebo: GnRH agonist plus placebo.
Medication should be taken in the morning between 8:00-10:00 AM. All patients concomitantly receive a prophylactic dose of dabigatran (220 mg once daily) or another anticoagulant.
A total of 30 patients is being dosed as follows: 20 patient in the estetrol group and 10 patients in the reference therapy group (placebo).
The primary objective is to assess the additional effects of E4 on total T and free T. Secondary objectives include the assessment of the effects of E4 on SHBG, PSA response and lipids and lipoproteins. […]

[3] = 20 mg or 40 mg daily, cited from earlier work
[4] = format: in vivo, male patients; details: average of Day 7 and Day 14
Description: For each group dosed at 2, 10, 20, 40 and 60 mg estetrol daily (oral administration), 7 to 10 male patients were tested for their plasma content in estetrol at Day 7 and at Day 14. For each dose group, the average trough level of all patients across both days was calculated.

[5] = format: in vivo, healthy men
Description: A phase I, double-blind, randomised, placebo-controlled, multiple dose study to evaluate the safety, pharmacokinetics and pharmacodynamics of multiple dosages of estetrol in healthy men.
Male participants aged between 40 and 70 years were allocated to one of the following groups: • Group 1: 20 mg E4 (estetrol) or placebo; • Group 2: 40 mg E4 (estetrol) or placebo; • Group 3: 60 mg E4 (estetrol) or placebo.
A total of 15 subjects were assigned to each dose group: 10 subjects were randomised to receive the active treatment (E4), 5 subjects were randomised to receive placebo treatment. In total […] participated in this study.
Dosing began with Group 1. The other groups were dosed consecutively. Dose escalation to the next E4 dose group proceeded based on reported adverse events (AEs), SHBG levels, lipids and haemostatic parameters. The decision to continue with the next higher E4 dose level was made by the Investigator, an independent expert and the Sponsor.
E4 was supplied as tablets and taken orally every morning between 8:00-10:00 am, for 28 days. The total duration of the study, including screening was 84 days for each subject (Screening from Day −28 till Day −1, Clinical part from Day 1 till Day 56).
There were two primary outcome parameters in this study. First primary parameter was the safety evaluation of E4. Safety variables included vital signs, routine laboratory tests, physical examination, ECG measurement and monitoring of (S)AEs.
Second primary parameter was the hormones related to prostate function. FSH, LH, E2, total testosterone, free testosterone and sex hormone-binding globulin (SHBG) were measured.
Secondary parameters included other pharmacodynamic and pharmacokinetic parameters. The pharmacodynamic parameters which were assessed are the following: • Haemostatic factors: (extrinsic) APC-resistance, prothrombin fragment 1+2, free tissue factor pathway inhibitor (TFPI), antithrombin activity, protein S activity, D-dimer, angiotensinogen; • Lipids and lipoproteins: total cholesterol, triglycerides, HDL-cholesterol, LDL-cholesterol and lipoprotein(a) (Lp(a)); • Carbohydrates: fasting serum glucose; • Bone turnover markers: osteocalcin, type I collagen telopeptide (CTX-1) and parathyroid hormone (PTH); • Prostate-specific antigen (PSA).
Pharmacokinetics were evaluated by measuring E4 trough levels on Day 2, 7, 14 and 28. Furthermore, on Day 28 before and at several time points after dosing E4 concentrations were measured.

[6] = Day 28 vs Day 1, 20, 40, 60 mg daily

SMILES: C[C@]12CC[C@@H]3c4ccc(O)cc4CC[C@H]3[C@@H]1[C@@H](O)[C@@H](O)[C@@H]2O [estetrol]
- Efficacy of ADT [1]: improves efficacy of ADT
- Quality of life of the prostate cancer patients [1]: improves quality of life
- Efficacy and quality of life of ADT treatment for prostate cancer [2]: effective therapy to improve efficacy and quality of life
- Libido decreased during treatment ([3]; both cohorts): 8 of 20
- Nipple tenderness reported ([3]; both cohorts): 7 of 20
- Body weight and safety parameters ([3]; healthy men 40-70 years): did not change
- Estradiol level ([3]; healthy men 40-70 years): decreased
- FSH level ([3]; healthy men 40-70 years): decreased
- Free testosterone level ([3]; healthy men 40-70 years): decreased
- LH levels ([3]; healthy men 40-70 years): did not change
- SHBG levels ([3]; healthy men 40-70 years): increased
- Total testosterone level ([3]; healthy men 40-70 years): decreased
- Trough plasma level ([4]; daily oral dose 2 mg): 198 pg/mL
- Trough plasma level ([4]; daily oral dose 10 mg): 1056 pg/mL
- Trough plasma level ([4]; daily oral dose 20 mg): 2187 pg/mL
- Trough plasma level ([4]; daily oral dose 40 mg): 4417 pg/mL
- Trough plasma level ([4]; daily oral dose 60 mg): 6157 pg/mL
- HDL Cholesterol [5, 6]: small increase
- Lowering effect on LDL Cholesterol [5, 6]: about 20%
- TG (triglycerides) [5, 6]: no changes
- Free testosterone level ([5]; Day 28 vs Day 1, 20, 40, 60 mg daily (FIG. 1A)): decreased
- Total testosterone level ([5]; Day 28 vs Day 1, 20, 40, 60 mg daily (FIG. 1B)): decreased
- SHBG level ([5]; Day 28 vs Day 1, 20, 40, 60 mg daily (FIG. 1C)): increase
- LH level ([5]; Day 28 vs Day 1, 20, 40, 60 mg daily (FIG. 1D)): not much change
- FSH levels ([5]; Day 28 vs Day 1, 20, 40, 60 mg daily (FIG. 1E)): decreased
- Effects on bone (osteocalcin, CTX-1) ([5]; Day 28 vs Day 1, 20, 40, 60 mg daily (FIGS. 2I, 2J)): beneficial estrogenic effects
- Changes in vital signs, ECG, physical examination and body weight ([5]; daily oral dose of 20 mg, 40 mg or 60 mg for 28 days): No clinically relevant changes
- Tolerability ([5]; daily oral dose of 20 mg, 40 mg or 60 mg for 28 days, healthy men aged 40-70 years): well tolerated
- LH levels after E4 administration ([5]; shortly after dosing, only for a few hours): decreased
